Reference: patent publication US20200147039A1, “COMPOUNDS USEFUL IN INHIBITING HUMAN TREFOIL FACTOR 3” (NATIONAL UNIVERSITY OF SINGAPORE, priority 2017, published 2020)

What was measured:
Ishikawa = test: AlamarBlue cell viability assay, Ishikawa; assay type: cell-based; settings: Homo sapiens, Endometrial
Method: (§1) The human immortalized mammary epithelial cell lines, MCF10A, and MCF12A; and immortalized hepatocellular epithelial cell line, LO2 were obtained from the American Type Culture Collection (ATCC, Rockville, Md.) and were cultured as per ATCC propagation instructions. MC cell lines, MCF7, T47D, BT474, BT20, MDA-MB-361, MDA-MB-436, MDA-MB-468, and MDA-MB-231; endometrial carcinoma cell lines, Ishikawa, ECC1, RL95-2 and AN3; hepatocellular carcinoma cell lines, Hep3B, H2P, and H2M; colon carcinoma cell lines, DLD-1, and Caco-2; and prostate carcinoma cell lines, PC3, LNCaP, and DU145 were obtained from the American Type Culture Collection (ATCC, Rockville, Md.). Pancreatic carcinoma cell lines, AsPC-1 and BxPC-3; Lung carcinoma cell lines, HCC-827, NCI-H1975, HCC-4006, PC-14, and NCI-H1299; and Thyroid carcinoma cell lines HTH83, CAL62, T238, and OGK-M were obtained from Prof. H. Phillip Koeffler's laboratory at The Cancer Science Institute of Singapore, National University of Singapore (NUS). Gastric carcinoma cell lines, AGS, MKN-28, MKN-45, and A2-528 were obtained from Prof. […]
(§2) In table 9 IC50 values of compound 43 compound library in several cancer cell lines are tabulated, using an AlamarBlue® cell viability assay as previously described in Pandey V et al., Breast Cancer Res. 2014; 16(5):429. Statistical analysis was assessed by using GraphPad Prism5. […]

HTH83 = test: AlamarBlue cell viability assay, HTH83; assay type: cell-based; settings: Homo sapiens, Thyroid
Method: as §1, §2

LNCaP = test: AlamarBlue cell viability assay, LNCaP; assay type: cell-based; settings: Homo sapiens, Prostate
Method: as §1, §2

[1] = tested on: high-TFF3 expression MC cells; test: ApoTox-Glo Triplex Assay and western blot (FIG. 2); assay type: cell-based, human; settings: 10 μM
Method: Effect of compound 43 (10 μM) on cell viability of high-TFF3 MC cell lines. (A) Cell viability (B) caspase 3/7 activities and (C) cytotoxicity was evaluated using ApoTox-Glo™ Triplex Assay Kit Promega (Singapore) according to manufacturer's instructions. Cell viability fluorescence is measured at 400Ex/505Em, cytotoxicity fluorescence is measured at 485Ex/520Em, while apoptosis (caspase 3/7 activities) is determined by luminescence measurement. (D) Western blot analysis was used to assess the level of various protein markers and protein activity in high-TFF3 expression MC cells after treatment with compound 43. Soluble whole cell extracts were run on a SDS-PAGE and immunoblotted as previously described in Pandey V et al., Breast Cancer Res. 2014; 16(5):429. β-ACTIN (ACTB) was used as input control for cell lysate. The sizes of detected protein bands in kDa are shown on the left side. Statistical significance was assessed by using an unpaired two-tailed Student's t test (P<0.05 was considered as significant) using GraphPad Prism5. Columns are mean of triplicate experiments; bars, ±SD. **P<0.001, *P<0.05.

## Cc1cc(-c2ccc(C3C(C#N)=C(N)Oc4c3c(=O)oc3ccccc43)cc2)cnc1F (stereo not shown) [Compound 43, 2-Amino-4-(4-(6-fluoro-5-methylpyridin-3-yl)phenyl)-5-oxo-4H,5H-pyrano[3,2-c]chromene-3-carbonitrile]
Ishikawa
  IC50: 940 nM
HTH83
  IC50: 560 nM
LNCaP
  IC50: 226000 nM
[1]
  intrinsic apoptosis: stimulates intrinsic apoptosis
